Counter-ions that a name gives are not always drawn. Like-named read-outs stand apart in the source and are kept apart here.
Columns and labels:
[1] = tested on: mechanical hyperalgesia associated with STZ-induced diabetes; assay: STZ-induced diabetes mechanical hyperalgesia, model of neuropathic pain (Randall-Selitto); format: in vivo, rat
Description: Painful diabetic neuropathy is one of the most common complications of insulin-dependent diabetes in man; in particular, diabetes can be associated with neuropathic pain which fails to be treated by classical analgesics. Streptozotocin (STZ)-induced diabetes in the rat has been increasingly used as a model of painful diabetic neuropathy to assess the efficacies of potential analgesic agents (C. Courteix, Pain 1993, 53, 81-8). A representative compound of the invention was tested for efficacy in reducing mechanical hyperalgesia associated with STZ-induced diabetes in the rat, according to the experimental model as described by the literature. Diabetes was produced with the injection of a single dose (75 mg/Kg i.p.) of STZ. In the following four weeks after the induction of diabetes the clinical symptoms (weight, body and skin temperature, motility and hyperglycemia) progressively developed by the animals, are strictly monitored.
After four weeks, the scores obtained in diabetic rats to various pain stimuli (in particular mechanical stimuli) were greater than those in normal rats, indicating hyperalgesia. The hyperalgesia induced by diabetes was evaluated using the Randall-Selitto method as above described, and quantitated using the analgesimeter. Also in this case, the difference in the mechanical pain threshold between the basal value (generally 230-250 g) and the one tolerated by the animals treated with the drug, is defined as mechanical hyperalgesia. The compound of the invention was administered i.p. (solution, Tween 80, 10% in saline) at different doses, and mechanical hyperalgesia was measured at the reported time, as maximum percent effect (MPE) which represents the difference (%) in pain threshold between the animals treated with the drug and the controls that received only the vehicle, compared with the weight borne by naïf non-diabetic controls. A 100% protection means that the diabetic animals treated with the compound can tolerate the same stimulus (weight) as the naïf non-diabetic animals. MPE higher than 100% means that the diabetic animal treated with the compound can tolerate stimuli (weight) higher than the control non-diabetic animals (hypoalgesia).
In Table 4, the effect of a representative compound of formula (I), in the above described model of neuropathic pain, is compared with some known pharmacological standards used for the clinical treatment of this pathology. In particular, from the MPE data at 0.5 hrs, the doses yielding a protection of 50% (ED50) and 100% (ED100) have been calculated.

[2] = tested on: Zymosan-induced mechanical hyperalgesia; assay: Zymosan-induced mechanical hyperalgesia (Randall-Selitto), model of inflammatory pain; format: in vivo, rat; conditions: for ED50: read-out: ED50 4 hrs
Description: In this model, typically a male Sprague-Dawley or Wistar rat (200-250 g) receives an interplantar injection of 3 mg/100 μl zymosan into one hind paw. A marked inflammation occurs in this hind paw. Drugs are administered orally for evaluation of efficacy, 30 min. before the inflammatory insult. […] The quantisation of the analgesic effect is achieved by an analgesimeter, which consists in applying to the inflamed paw an increasing weight (from 130-140 g up to 500 g). […] For each test compound, at least three doses were used, with 8 animals per group. Compounds of the invention were tested at 10, 20 and 40 mg/Kg.

[3] = molecular target: T1, recombinant human aggrecanase 2 (ADAMTS-5) (Homo sapiens, UniProt Q9UNA0); assay: InviLISA Aggrecanase activity assay, aggrecanase 2; format: biochemical; conditions: for inhibition at 10 µM: inhibitors tested at 10 μM final concentration
T1 construct: ADAMTS-5 aminoacids S262-G625 with C-terminal tag; purchased Invitek GmbH, Berlin
T1 sequence (Q9UNA0 262-625): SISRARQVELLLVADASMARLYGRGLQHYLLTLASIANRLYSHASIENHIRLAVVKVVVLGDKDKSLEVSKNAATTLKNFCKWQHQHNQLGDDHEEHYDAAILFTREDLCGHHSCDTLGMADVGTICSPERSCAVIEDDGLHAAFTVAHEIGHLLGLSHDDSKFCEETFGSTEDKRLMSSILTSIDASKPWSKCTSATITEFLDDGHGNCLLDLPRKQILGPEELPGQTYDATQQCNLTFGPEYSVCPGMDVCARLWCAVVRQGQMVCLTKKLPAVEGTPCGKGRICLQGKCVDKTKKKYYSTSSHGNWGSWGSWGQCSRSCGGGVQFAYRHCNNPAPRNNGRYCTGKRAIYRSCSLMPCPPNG
Description: (§1) The InviLISA Aggrecanase activity assay (Invitek GmbH, Berlin) was used to screen and characterise aggrecanase inhibitors. The assay was carried out in two steps, according to Will et al. (Will H, Dettloff M, Bendzko P, Svenshnikov P, A Quantitative Assay for aggrecanase Activity; 2005, Journal of Biomolecular Techniques, 16 (4), 459-472). A recombinant fragment of human aggrecan interglobular domain (aggrecan-IGD; T331-G458) is first digested with aggrecanase. Proteolytic cleavage of the substrate releases an aggrecan peptide with the N-terminal sequence ARGSVIL (ARGSVIL-peptide), that was then quantified with two monoclonal anti-peptide antibodies (ELISA module). For precise calculation of product, ARGSVIL-peptide standard concentrations were run in parallel.
(§2) 1) Proteolysis of aggrecan-IGD by aggrecanase. Aggrecan-IGD was incubated with standard recombinant human aggrecanase 1 (ADAMTS-4 aminoacids F213-A579 with C-terminal tag) or standard recombinant human aggrecanase 2 (ADAMTS-5 aminoacids S262-G625 with C-terminal tag) in the absence (total enzymatic activity) or presence (modulated enzymatic activity) of inhibitors to be tested. Enzymes were pre-incubated with the inhibitors or the appropriate concentration of diluent as control (DMSO 0.25% final concentration in proteolysis), at 4° C. for 30 min prior to assaying their activity. Five microliters of mix enzyme-inhibitor were added to the substrate (0.1 μM final concentration) in a total volume of 100 μL and incubated for 15 minutes at 37° C. The reaction was terminated with EDTA-containing buffer. The inhibitors were tested at 10 μM final concentration and compounds achieving ≧50% inhibitory effect were evaluated for IC50 calculation, in a range generally extended from 0.1 to 10 μM final concentration.
(§3) 2) Aggrecan peptide ELISA. ARGSVIL-peptide standard, proteolytic digestion of Aggrecan-IGD with standard aggrecanases and test samples were incubated in microtiter wells pre-coated with anti-ARGSVIL-neoepitope antibody. ARGSVIL-peptide is bound to the coated antibody, while other components are removed by washing and aspiration. The bound ARGSVIL-peptide was detected with a second peroxidase-labelled antibody. Any excess of the conjugate was removed by washing and aspiration. The amount of peroxidase bound to different wells was determined in reactions with peroxidase substrate TMB. The reactions are stopped by addition of sulphuric acid solution and absorbance is read at 450 nm in a microtiter plate spectrophotometer.

[4] = tested on: CFA-induced prolonged inflammation; assay: CFA model of chronic inflammatory pain (Randall-Selitto); format: in vivo, rat; conditions: for MPE 0.5 hrs / MPE 1.5 hrs / MPE 3 hrs / MPE 6 hrs / MPE 24 hrs: NE = not effective; for ED100 0.5 hrs: IP, calculated from the MPE data at 0.5 hrs; for ED50: Rattus norvegicus, ip, 0.5 h, read-out: ED50 0.5 hrs
[5] = molecular target: T2, recombinant human aggrecanase 1 (ADAMTS-4) (Homo sapiens, UniProt O75173); assay: InviLISA Aggrecanase activity assay, aggrecanase 1; format: biochemical; conditions: inhibitors tested at 10 μM final concentration
T2 construct: ADAMTS-4 aminoacids F213-A579 with C-terminal tag; purchased Invitek GmbH, Berlin
T2 sequence (O75173 213-579): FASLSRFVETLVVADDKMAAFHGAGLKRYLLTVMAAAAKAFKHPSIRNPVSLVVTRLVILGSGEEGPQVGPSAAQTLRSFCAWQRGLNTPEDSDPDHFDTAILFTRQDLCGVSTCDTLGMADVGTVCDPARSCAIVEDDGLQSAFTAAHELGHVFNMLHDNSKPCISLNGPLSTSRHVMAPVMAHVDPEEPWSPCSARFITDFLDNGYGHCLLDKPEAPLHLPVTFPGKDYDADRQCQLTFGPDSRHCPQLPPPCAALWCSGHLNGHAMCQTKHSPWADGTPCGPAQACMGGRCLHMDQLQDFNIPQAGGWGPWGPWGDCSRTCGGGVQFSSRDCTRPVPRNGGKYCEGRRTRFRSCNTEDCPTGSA
Description: as §1, §2, §3

[6] = 10 mg/Kg IP, NE = not effective
[7] = 30 mg/Kg IP, NE = not effective
[8] = rat, OS, 4 hrs after zymosan, NC = not calculable
[9] = 50 mg/Kg IP, NE = not effective

CC(=N)Nc1ccc2oc(-c3ccccc3)cc(=O)c2c1 [Example 1, 2-phenyl-6-[(1-iminoethyl)amino]-4H-1-benzopyran-4-one hydrochloride]
MPE 0.5 hrs ([1]; 3 mg/Kg IP, NE = not effective): 74% | MPE 1.5 hrs ([1]; 3 mg/Kg IP, NE = not effective): 25% | MPE 0.5 hrs [1, 6]: 109% | MPE 1.5 hrs [1, 6]: 54% | MPE 0.5 hrs [1, 7]: 113% | MPE 1.5 hrs [1, 7]: 39% | MPE 3 hrs [1, 7]: 39% | MPE 6 hrs [1, 7]: 31% | protection ([1]; at the doses of 10 and 30 mg/kg): higher than 100% | efficacy in STZ neuropathic pain paradigm ([1]; rat, in vivo): high efficacy | ED50 ([2]; Rattus norvegicus, 4 h): 7.9 mg/kg | ED100 4 hrs [2, 8]: 19 mg/kg | inhibition at 10 µM [3]: 30% | MPE 0.5 hrs ([4]; 3 mg/Kg IP): 30% | MPE 1.5 hrs ([4]; 3 mg/Kg IP): 50% | MPE 3 hrs ([4]; 3 mg/Kg IP): 40% | MPE 0.5 hrs ([4]; 10 mg/Kg IP): 62% | MPE 1.5 hrs ([4]; 10 mg/Kg IP): 39% | MPE 0.5 hrs ([4]; 30 mg/Kg IP): 261% | MPE 1.5 hrs ([4]; 30 mg/Kg IP): 190% | MPE 3 hrs ([4]; 30 mg/Kg IP): 37% | ED100 0.5 hrs [4]: 8.06 mg/kg | ED50 [4]: 4.86 mg/kg | inhibition at 10 µM [5]: 10%

COCCC(=N)Nc1ccc2oc(-c3ccc4c(c3)OCO4)c(O)c(=O)c2c1 (as salt: hydrochloride) [Example 19, 2-(benzo[1,3]dioxol-5-yl)-3-hydroxy-6-[(1-iminopropyl-3-methoxy)amino]-4H-1-benzopyran-4-one hydrochloride]
melting point: 188.5 to 190 °C

CC(=N)Nc1ccc2oc(-c3ccc(-n4ccnc4)cc3)c(O)c(=O)c2c1 (as salt: hydrochloride) [Example 5, 2-[(4-imidazol-1-yl)-phenyl]-3-hydroxy-6-[(1-iminoethyl)amino]-4H-1-benzopyran-4-one hydrochloride]
melting point: 311.7 to 312.1 °C

CC(=N)Nc1ccc2oc(-c3ccc(O)nc3)c(O)c(=O)c2c1 (as salt: hydrochloride) [Example 21, 2-(6-hydroxypyridin-3-yl)-3-hydroxy-6-[(1-iminoethyl)amino]-4H-1-benzopyran-4-one hydrochloride]
melting point: 284.5 to 286 °C

CC(=N)Nc1ccc2oc(-c3ccccc3)cc(=O)c2c1 (as salt: hydrochloride) [Example 1, 2-phenyl-6-[(1-iminoethyl)amino]-4H-1-benzopyran-4-one hydrochloride]
melting point: 278.2 to 278.8 °C

CC(=N)Nc1ccc2oc(-c3ccc4c(c3)OCO4)cc(=O)c2c1 [Example 4, 2-(benzo[1,3]dioxol-5-yl)-6-[(1-iminoethyl)amino]-4H-1-benzopyran-4-one hydrochloride]
ED50 ([2]; Rattus norvegicus, 4 h): 12 mg/kg | ED100 4 hrs [2, 8]: 35 mg/kg | inhibition at 10 µM [3]: 10% | inhibition at 10 µM [5]: 40%

CS(=O)(=O)Nc1ccc([N+](=O)[O-])cc1Oc1ccccc1 [Nimesulide, reference compound]
ulcerative side effects ([2]; even at the higher doses tested): ulcerative side effects | ED50 [2, 8]: 5 mg/kg

COc1ccc(-c2cc(=O)c3cc(NC(C)=N)ccc3o2)cc1 [Example 2, 2-(4-methoxyphenyl)-6-[(1-iminoethyl)amino]-4H-1-benzopyran-4-one hydrochloride monohydrate]
ED50 ([2]; Rattus norvegicus, 4 h): 6.5 mg/kg | ED100 4 hrs [2, 8]: 18 mg/kg | inhibition at 10 µM [3]: 30% | MPE 0.5 hrs ([4]; 3 mg/Kg IP): 91% | MPE 1.5 hrs ([4]; 3 mg/Kg IP): 87% | MPE 3 hrs ([4]; 3 mg/Kg IP): 32% | MPE 0.5 hrs ([4]; 10 mg/Kg IP): 193% | MPE 1.5 hrs ([4]; 10 mg/Kg IP): 105% | MPE 3 hrs ([4]; 10 mg/Kg IP): 42% | MPE 6 hrs ([4]; 10 mg/Kg IP): 43% | MPE 24 hrs ([4]; 10 mg/Kg IP): 38% | MPE 0.5 hrs ([4]; 30 mg/Kg IP): 254% | MPE 1.5 hrs ([4]; 30 mg/Kg IP): 190% | MPE 3 hrs ([4]; 30 mg/Kg IP): 146% | MPE 6 hrs ([4]; 30 mg/Kg IP): 89% | MPE 24 hrs ([4]; 30 mg/Kg IP): 45% | ED100 0.5 hrs [4]: 3.15 mg/kg | ED50 [4]: 1.56 mg/kg | inhibition at 10 µM [5]: 30%

CC(=N)Nc1ccc2oc(-c3ccc(F)cc3)cc(=O)c2c1 [Example 3, 2-(4-fluorophenyl)-6-[(1-iminoethyl)amino]-4H-1-benzopyran-4-one]
ED100 4 hrs [2, 8]: 24 mg/kg | ED50 [2, 8]: 12 mg/kg | IC50 [3]: 10 µM | inhibition at 10 µM [5]: 40%

Cc1ccc(-c2cc(C(F)(F)F)nn2-c2ccc(S(N)(=O)=O)cc2)cc1 [Celecoxib, reference compound]
ED50 [2, 8]: 9 mg/kg

COc1ccc(-c2oc3ccc(NC(=N)CO)cc3c(=O)c2O)cc1 [Example 13, 2-(4-methoxyphenyl)-3-hydroxy-6-[(1-iminoethyl-2-hydroxy)amino]-4H-1-benzopyran-4-one hydrochloride monohydrate]
IC50 [3]: 2.8 µM | inhibition at 10 µM [5]: 0%

COc1cccc(C2(O)CCCCC2CN(C)C)c1 (stereo not shown) [Tramadol]
MPE 0.5 hrs ([1]; 3 mg/Kg IP, NE = not effective): 26% | MPE 1.5 hrs ([1]; 3 mg/Kg IP, NE = not effective): 53% | MPE 0.5 hrs [1, 6]: 58% | MPE 1.5 hrs [1, 6]: 48% | MPE 3 hrs [1, 6]: 27% | MPE 0.5 hrs [1, 7]: 54% | MPE 1.5 hrs [1, 7]: 64% | MPE 3 hrs [1, 7]: 23% | MPE 0.5 hrs [1, 9]: 81% | MPE 1.5 hrs [1, 9]: 60% | MPE 3 hrs [1, 9]: 43% | ED50 ([1]; Rattus norvegicus, ip, 0.5 h, read-out: ED50 0.5 hrs, IP, calculated from the MPE data at 0.5 hrs, NC = not calculable): 10.9 mg/kg | ED50 ([2]; Rattus norvegicus, 4 h): 25.7 mg/kg
